≈ marks a conversion by molar mass, not a printed value. Where two headings read alike, the source gives them in different places.
Key:
[1] = test system: Mycobacterium tuberculosis 331/88 (H37Rv); assay: Antimycobacterial MIC micromethod, Šula's medium; assay type: cell-based
[2] = test system: Mycobacterium avium 330/88; assay: Antimycobacterial MIC micromethod; assay type: cell-based
[3] = test system: Mycobacterium kansasii 235/80; assay: Antimycobacterial MIC micromethod; assay type: cell-based; conditions: read-out: MIC M. kansasii 235/80
[4] = test system: M. kansasii 6509/96 (clinically isolated strain); assay: Antimycobacterial MIC micromethod; assay type: cell-based; conditions: Mycobacterium kansasii, read-out: MIC M. kansasii 6509/96
[5] = target: T1, mycobacterial isocitrate lyase (ICL1, Rv0467) (Mycobacterium tuberculosis, UniProt P9WKK7); assay: Isocitrate lyase inhibition assay (ICL1); assay type: biochemical, Mycobacterium tuberculosis H37Rv; conditions: 10 μmol/L; read-out: % ICL inhibition at 10 μmol/L (± standard deviation)
T1 construct: His tag (from pET-28b(+)); made in house; host or cells: E. coli BL21(DE3), pET-28b(+) plasmid
T1 sequence (P9WKK7 1-428): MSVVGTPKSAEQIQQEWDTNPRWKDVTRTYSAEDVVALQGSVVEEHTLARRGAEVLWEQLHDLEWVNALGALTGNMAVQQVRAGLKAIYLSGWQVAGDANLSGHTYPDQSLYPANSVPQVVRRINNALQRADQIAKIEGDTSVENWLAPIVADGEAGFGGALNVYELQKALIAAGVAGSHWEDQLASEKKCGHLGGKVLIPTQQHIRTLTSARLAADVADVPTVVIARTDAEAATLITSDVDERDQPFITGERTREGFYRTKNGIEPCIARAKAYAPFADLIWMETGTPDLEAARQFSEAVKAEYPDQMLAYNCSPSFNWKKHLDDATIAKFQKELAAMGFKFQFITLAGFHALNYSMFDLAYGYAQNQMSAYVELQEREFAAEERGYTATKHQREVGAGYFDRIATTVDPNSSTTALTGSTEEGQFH

[6] = test system: Enterococcus sp. J 14365/08; assay: Antibacterial microdilution broth method; assay type: cell-based; conditions: read-out: MIC/IC90 Enterococcus sp. J 14365/08
Procedure: (§1) The in vitro antibacterial activity was assayed against eight Gram-positive and Gram-negative strains: Staphylococcus aureus CCM 4516/08, methicillin-resistant Staphylococcus aureus H 5996/08 (MRSA), Staphylococcus epidermidis H 6966/08, Enterococcus sp. J 14365/08; Escherichia coli CCM 4517, Klebsiella pneumoniae D 11750/08, ESBL-positive Klebsiella pneumoniae J 14368/08, and Pseudomonas aeruginosa CCM 1961.
(§2) The microdilution broth method modified according to standard M07-A07 in Mueller-Hinton broth (HiMedia Laboratories, Mumbai, India) adjusted to pH 7.4 (±0.2) was used. The tested compounds were dissolved in DMSO to the final concentrations ranging from […]. Benzylpenicillin (penicillin G) was used as a comparative drug. Bacterial inoculum in sterile water was prepared to match 0.5 McFarland scale ([…]). The minimum inhibitory concentrations were assayed as 90% (IC90) or higher reduction of growth when compared to the control. The determination of results was performed visually and spectrophotometrically (at 540 nm). The values of MICs were determined after 24 and 48 h of incubation in the darkness at 35 °C (±0.1) in a humid atmosphere.

[7] = test system: Escherichia coli CCM 4517; assay: Antibacterial microdilution broth method; assay type: cell-based
Procedure: as §1, §2

[8] = test system: Staphylococcus aureus CCM 4516/08; assay: Antibacterial microdilution broth method; assay type: cell-based; conditions: read-out: MIC/IC90 S. aureus CCM 4516/08
Procedure: as §1, §2

[9] = test system: Staphylococcus epidermidis H 6966/08; assay: Antibacterial microdilution broth method; assay type: cell-based; conditions: read-out: MIC/IC90 S. epidermidis H 6966/08
Procedure: as §1, §2

[10] = test system: methicillin-resistant Staphylococcus aureus H 5996/08 (MRSA); assay: Antibacterial microdilution broth method; assay type: cell-based; conditions: read-out: MIC/IC90 MRSA H 5996/08
Procedure: as §1, §2

HepG2 cells = assay: Cytotoxicity evaluation (CellTiter 96 MTS); assay type: cell-based, human; conditions: Homo sapiens, read-out: IC50 HepG2
Procedure: Seven esters and their parent salicylanilides with the most robust antimicrobial activity were tested for cytotoxicity in the human hepatocellular liver carcinoma cell line HepG2 (passages 21–24; ECACC, Salisbury, UK) using a standard colorimetric method measuring a tetrazolium salt reduction (CellTiter(R) 96 AQueous One Solution Assay, Promega G3580, Madison, WI, USA).
The cells were routinely cultured in Minimum Essentials Eagle Medium (Sigma-Aldrich, Darmstadt, Germany) supplemented with 10% foetal bovine serum (PAA; Biotech, Prague, Czech Republic), 1% of L-glutamine solution (Sigma-Aldrich), and non-essential amino acids solution (Sigma-Aldrich) in a humidified atmosphere containing 5% CO2 at 37 °C. For subculturing, the cells were harvested after trypsin/EDTA (Sigma-Aldrich) treatment at 37 °C. The cells treated with the tested substances were used as experimental groups. Untreated HepG2 cells were used as control groups.
The cells were seeded in density 1 × 10^4 cells per well in a 96-well plate with microscopic control. Next day, the cells were treated with each of the tested substances. […] The most of the tested compounds were prepared in incubation concentrations of 0.01–20 µM in triplicates. 4-(Trifluoromethyl)benzoic acid was applied in the concentrations of 10–4,000 µM in triplicates. The following types of controls were included: determination of 100% viability and 0% viability (the cells treated by 10% DMSO), no cell control and vehiculum controls. These checking samples were prepared in triplicates.
The treated cells were incubated together with controls at 37 °C for 24 h in 5% CO2 atmosphere. After this time reagent from the kit CellTiter 96 AQueous One Solution Cell Proliferation Assay was added. The CellTiter 96 assay is based on the reduction of tetrazolium salt MTS [3-(4,5-dimethylthiazol-2-yl)-5-(3-carboxymethoxyphenyl)-2-(4-sulfophenyl)-2H-tetrazolium] to water-soluble formazan dye by metabolically active cells. The reduction of the reagent is attributed to availability of NADH or NADPH. The decline in levels of these metabolically important compounds in the cell causes that the production of formazan is reduced. The tested plate was incubated for 2 h at 37 °C and 5% CO2 and after this time, the absorbance was recorded at 490 nm using a 96-well plate reader (TECAN, Infinite M200, Grödig, Austria).
The results were expressed as inhibitory concentration which is necessary to inhibit cell viability to 50% from the maximal (control) viability (IC50). A standard toxicological parameter IC50 was calculated in each of the tested substances using GraphPad Prism software (version 5.02; GraphPad Software Inc., San Diego, CA, USA).

[11] = test system: Gram-positive cocci including MRSA; assay: Antibacterial microdilution, summary for Gram-positive cocci; assay type: cell-based; conditions: Staphylococcus aureus, read-out: MICs against Gram-positive cocci
Procedure: as §1, §2

Mtb. 7357/1988 = assay: microbe, parasite or virus in culture; assay type: cell-based; conditions: Mycobacterium tuberculosis, read-out: MIC Mtb. 7357/1988
Mtb. 9449/2006 = assay: microbe, parasite or virus in culture; assay type: cell-based; conditions: Mycobacterium tuberculosis, read-out: MIC Mtb. 9449/2006
Mtb. 53/2009 = assay: microbe, parasite or virus in culture; assay type: cell-based; conditions: Mycobacterium tuberculosis, read-out: MIC Mtb. 53/2009
Mtb. 234/2005 = assay: microbe, parasite or virus in culture; assay type: cell-based; conditions: Mycobacterium tuberculosis, read-out: MIC Mtb. 234/2005
Mtb. Praha 1 = assay: microbe, parasite or virus in culture; assay type: cell-based; conditions: Mycobacterium tuberculosis, read-out: MIC Mtb. Praha 1
Mtb. Praha 131 (XDR-TB) = assay: microbe, parasite or virus in culture; assay type: cell-based; conditions: Mycobacterium tuberculosis, read-out: MIC Mtb. Praha 131 (XDR-TB)
[12] = test system: Mycobacterium tuberculosis, M. avium and M. kansasii; assay: Antimycobacterial MIC, summary over all mycobacterial strains; assay type: cell-based; conditions: range over all strains and times; read-out: MICs against all mycobacterial strains
[13] = 336 h, 14 d, read-out: MIC Mtb. 331/88
[14] = 504 h, 21 d, read-out: MIC Mtb. 331/88

## O=C(Oc1cc(Cl)ccc1C(=O)Nc1ccc(C(F)(F)F)cc1)c1ccc(C(F)(F)F)cc1 [1p]
[1]; [13]
  MIC: 2 µM (≈ 0.976 µg/mL)
[1]; [14]
  MIC: 2 µM (≈ 0.976 µg/mL)
[2]; 330/88, 336 h, 14 d
  MIC: 2 µM (≈ 0.976 µg/mL)
[2]; 330/88, 504 h, 21 d
  MIC: 8 µM (≈ 3.9 µg/mL)
[3]; 235/80, 168 h, 7 d
  MIC: 2 µM (≈ 0.976 µg/mL)
[3]; 235/80, 336 h, 14 d
  MIC: 2 µM (≈ 0.976 µg/mL)
[3]; 235/80, 504 h, 21 d
  MIC: 4 µM (≈ 1.95 µg/mL)
[4]; 168 h, 7 d
  MIC: 1 µM (≈ 0.488 µg/mL)
[4]; 336 h, 14 d
  MIC: 4 µM (≈ 1.95 µg/mL)
[4]; 504 h, 21 d
  MIC: 4 µM (≈ 1.95 µg/mL)
[5]
  inhibition at 10 µM: 17 ± 2.3%
[6]; SP.J14365/08, 24 h
  MIC: 0.49 µM (≈ 0.239 µg/mL)
[6]; SP.J14365/08, 48 h
  MIC: 3.9 µM (≈ 1.9 µg/mL)
[7]; CCM4517, 24 h, read-out: MIC/IC90 E. coli CCM 4517
  MIC: 31.2 µM (≈ 15.2 µg/mL)
[7]; CCM4517, 48 h, read-out: MIC/IC90 E. coli CCM 4517
  MIC: 250 µM (≈ 122 µg/mL)
[7]; CCM4517, time not stated, read-out: MIC E. coli (partial susceptibility)
  MIC: 31.2 µM (≈ 15.2 µg/mL)
[8]; CCM4516, 24 h
  MIC: 0.49 µM (≈ 0.239 µg/mL)
[8]; CCM4516, 48 h
  MIC: 0.98 µM (≈ 0.478 µg/mL)
[9]; H6966/08, 24 h
  MIC: 0.49 µM (≈ 0.239 µg/mL)
[9]; H6966/08, 48 h
  MIC: 0.98 µM (≈ 0.478 µg/mL)
[10]; 24 h
  MIC: 0.49 µM (≈ 0.239 µg/mL)
[10]; 48 h
  MIC: 0.98 µM (≈ 0.478 µg/mL)
HepG2 cells; HepG2, 24 h, cytotoxicity
  IC50: 1770 nM
[11]
  MIC: < 1 µM

## O=C(Oc1ccc(Br)cc1C(=O)Nc1ccc(C(F)(F)F)cc1)c1ccc(C(F)(F)F)cc1 [1r]
[1]; [13]
  MIC: 1 µM (≈ 0.532 µg/mL)
[1]; [14]
  MIC: 1 µM (≈ 0.532 µg/mL)
[1]; time not stated, read-out: MIC against M. tuberculosis
  MIC: 1 µM (≈ 0.532 µg/mL)
[2]; 330/88, 336 h, 14 d
  MIC: 2 µM (≈ 1.06 µg/mL)
[2]; 330/88, 504 h, 21 d
  MIC: 4 µM (≈ 2.13 µg/mL)
[3]; 235/80, 168 h, 7 d
  MIC: 1 µM (≈ 0.532 µg/mL)
[3]; 235/80, 336 h, 14 d
  MIC: 2 µM (≈ 1.06 µg/mL)
[3]; 235/80, 504 h, 21 d
  MIC: 4 µM (≈ 2.13 µg/mL)
[4]; 168 h, 7 d
  MIC: 1 µM (≈ 0.532 µg/mL)
[4]; 336 h, 14 d
  MIC: 2 µM (≈ 1.06 µg/mL)
[4]; 504 h, 21 d
  MIC: 4 µM (≈ 2.13 µg/mL)
Mtb. 7357/1988; 336 h
  MIC: 1 µM (≈ 0.532 µg/mL)
Mtb. 7357/1988; 504 h
  MIC: 1 µM (≈ 0.532 µg/mL)
Mtb. 9449/2006; 336 h
  MIC: 1 µM (≈ 0.532 µg/mL)
Mtb. 9449/2006; 504 h
  MIC: 1 µM (≈ 0.532 µg/mL)
Mtb. 53/2009; 336 h
  MIC: 1 µM (≈ 0.532 µg/mL)
Mtb. 53/2009; 504 h
  MIC: 2 µM (≈ 1.06 µg/mL)
Mtb. 234/2005; 336 h
  MIC: 0.5 µM (≈ 0.266 µg/mL)
Mtb. 234/2005; 504 h
  MIC: 1 µM (≈ 0.532 µg/mL)
Mtb. Praha 1; 336 h
  MIC: 0.5 µM (≈ 0.266 µg/mL)
Mtb. Praha 1; 504 h
  MIC: 1 µM (≈ 0.532 µg/mL)
Mtb. Praha 131 (XDR-TB); 336 h
  MIC: 0.5 µM (≈ 0.266 µg/mL)
Mtb. Praha 131 (XDR-TB); 504 h
  MIC: 1 µM (≈ 0.532 µg/mL)
[5]
  inhibition at 10 µM: ≥ 20%
HepG2 cells; HepG2, 24 h
  IC50: 2030 nM
[12]
  MIC: 1 to 4 µM (≈ 0.532 to 2.13 µg/mL)

From article PMC6270420, “Antibacterial Activity of Salicylanilide 4-(Trifluoromethyl)benzoates” (Molecules, 2013)
